Experimental data published in ChEMBL document CHEMBL4177550, “Bi- and Tetracyclic Spirotetronates from the Coal Mine Fire Isolate Streptomyces sp. LC-6-2” (J Nat Prod, 2017).
Active and inactive are the calls of the source.

Tests used:
Staphylococcus aureus = experiment: Antibacterial activity against Staphylococcus aureus ATCC 6538 up to 60 uM after 16 to 48 hrs; type: functional, organism-based
Micrococcus luteus = experiment: Antibacterial activity against Micrococcus luteus NRRL B-287 up to 60 uM after 16 to 48 hrs; type: functional, organism-based
A549 = experiment: Cytotoxicity against human A549 cells assessed as decrease in cell viability up to 10 uM after 48 hrs by resazurin assay; type: functional, cell-based
Escherichia coli = experiment: Antibacterial activity against Escherichia coli NRRL B-3708 up to 60 uM after 16 to 48 hrs; type: functional, organism-based
Saccharomyces cerevisiae = experiment: Antifungal activity against Saccharomyces cerevisiae ATCC 204508 up to 60 uM after 16 to 48 hrs; type: functional, organism-based
Salmonella enterica = experiment: Antibacterial activity against Salmonella enterica ATCC 10708 up to 60 uM after 16 to 48 hrs; type: functional, organism-based

Measured: Activity

C[C@@H]1C[C@H](C)/C(O)=C2/C(=O)O[C@]34C[C@@H](C)[C@]5(C)O[C@]23[C@@H](C[C@H]4[C@@H]5O)C1=O
inactive: Staphylococcus aureus | Micrococcus luteus | A549 | Escherichia coli | Saccharomyces cerevisiae | Salmonella enterica

C[C@@H]1C[C@H](C)/C(O)=C2/C(=O)O[C@]34C[C@@](C)(O)[C@]5(C)O[C@]23[C@@H](C[C@@]42O[C@H]25)C1=O
inactive: Staphylococcus aureus | Micrococcus luteus | A549 | Escherichia coli | Saccharomyces cerevisiae | Salmonella enterica

CC(=O)C[C@H](C)C(=O)C1=C(O)[C@@]2(C[C@@H](C)C(C)=C[C@H]2/C=C/C(=O)O)OC1=O
inactive: Staphylococcus aureus | Micrococcus luteus | A549 | Escherichia coli | Saccharomyces cerevisiae | Salmonella enterica

C[C@@H]1C[C@H](C)/C(O)=C2/C(=O)O[C@]34C[C@@H](CO)[C@]5(C)O[C@]23[C@@H](C[C@H]4[C@@H]5O)C1=O
inactive: Staphylococcus aureus | Micrococcus luteus | A549 | Escherichia coli | Saccharomyces cerevisiae | Salmonella enterica

C[C@H]1C[C@](C)(O)C(=O)[C@@H]2[C@@H](O)[C@H]3[C@H](O)[C@@]4(C)O[C@@]25/C(=C\1O)C(=O)O[C@@]35C[C@H]4CO
inactive: Staphylococcus aureus | Micrococcus luteus | A549 | Escherichia coli | Saccharomyces cerevisiae | Salmonella enterica

C[C@H]1C[C@](C)(O)C(=O)[C@@H]2[C@@H](O)[C@H]3[C@H](O)[C@@]4(C)O[C@@]25/C(=C\1O)C(=O)O[C@@]35C[C@@]4(C)O
inactive: Staphylococcus aureus | Micrococcus luteus | A549 | Escherichia coli | Saccharomyces cerevisiae | Salmonella enterica

CO[C@H]1[C@H]2[C@H](O)[C@@]3(C)O[C@@]45/C(=C(/O)[C@@H](C)C[C@](C)(O)C(=O)[C@H]14)C(=O)O[C@@]25C[C@H]3C
inactive: Staphylococcus aureus | Micrococcus luteus | A549 | Escherichia coli | Saccharomyces cerevisiae | Salmonella enterica

C[C@H]1C[C@](C)(O)C(=O)C[C@@H]2/C(=C\1O)C(=O)O[C@]13C[C@H](C)[C@](C)(OC1=O)[C@@H](O)[C@H]23
inactive: Staphylococcus aureus | Micrococcus luteus | A549 | Escherichia coli | Saccharomyces cerevisiae | Salmonella enterica

C[C@@H]1C[C@@]23OC(=O)C4=C2O[C@]1(C)[C@@H](O)[C@@H]3[C@H]1O[C@H]1C(=O)[C@@](C)(O)C[C@H](C)C4=O
inactive: Staphylococcus aureus | Micrococcus luteus | A549 | Escherichia coli | Saccharomyces cerevisiae | Salmonella enterica

C[C@@H]1C[C@H](C)/C(O)=C2/C(=O)O[C@]34C[C@@](C)(O)[C@]5(C)O[C@]23[C@@H](C[C@H]4[C@@H]5O)C1=O
inactive: Staphylococcus aureus | Micrococcus luteus | A549 | Escherichia coli | Saccharomyces cerevisiae | Salmonella enterica

C[C@@H]1C[C@H](C)C(=O)C2=C3O[C@@]4(C)[C@H](CO)C[C@]3(OC2=O)[C@@H](CCC1=O)[C@@H]4O
inactive: Staphylococcus aureus | Micrococcus luteus | A549 | Escherichia coli | Saccharomyces cerevisiae | Salmonella enterica

C[C@@H]1C[C@]23OC(=O)/C4=C(\O)[C@@H](C)C[C@](C)(O)C(=O)[C@@H]5[C@@H](O)[C@H]2[C@H](O)[C@@]1(C)O[C@@]453
inactive: Staphylococcus aureus | Micrococcus luteus | A549 | Escherichia coli | Saccharomyces cerevisiae | Salmonella enterica
